Reference: patent US20070135431A1, “INHIBITORS OF HISTONE DEACETYLASE FOR THE TREATMENT OF DISEASE” (KALYPSYS, INC, priority 2005, published 2007)

Key:
[1] = tested on: HDAC in cells; experiment: Cellular HDAC inhibition (cellular histone hyperacetylation / cytotoxicity assays; Table 1 only says Cellular IC50); assay type: cell-based; conditions: transformed cell lines (e.g. HeLa, A549, MCF-7); cell line not given
Method: 2) Cellular Histone Hyperacetylation Assays:
These two secondary assays evaluate a compound's ability to inhibit HDAC in cells by measuring cellular histone acetylation levels. The cytoblot facilitates quantitative EC50 information for cellular HDAC inhibition. Transformed cell lines (e.g. HeLa, A549, MCF-7) are cultured under standard media and culture conditions prior to plating.
Cells (approx. 2,500/well) are allowed to adhere 10-24 hours to wells of a 384-well Greiner PS assay plate in media containing 1-5% serum. Cells are treated with appropriate compound and specific concentrations for 0 to 24 hours. Cells are washed once with PBS (60 μL) and then fixed (95% ethanol, 5% acetic acid or 2% PFA) for 1 minute at RT (30 μL). Cells are blocked with 1% BSA for 1 hour and washed and stained with antibody (e.g. anti-Acetylated Histone H3, Upstate Biotechnology), followed by washing and incubation with an appropriate secondary antibody conjugated to HRP or fluorophore. For luminescence assays, signal is generated using Luminol substrate (Santa Cruz Biotechnology) and detected using an Aquest plate reader (Molecular Devices).
3) Differential Cytotoxicity Assay:
HDAC inhibitors display differential cytotoxicity toward certain transformed cell lines. Cells are cultured according to standard ATCC recommended conditions that are appropriate to each cell type. Compounds were tested for their ability to kill different cell types (normal and transformed) using the ATPlite luminescence ATP detection assay system (Perkin Elmer). Assays are run in either 384-well or 1536-well Greiner PS plates. Cells (30 μL or 5 μL, respectively) are dispensed using either multichannel pipette for 384-well plates, or proprietary Kalypsys bulk liquid dispenser for 1536-well plates. Compounds added using proprietary pin-transfer device (500 nL or 5 nL) and incubated 5 to 30 hours prior to analysis. Luminescence is measured using Aquest plate reader (Molecular Devices).

[2] = tested on: HDAC; experiment: In vitro HDAC-inhibition assay (Fluor de Lys fluorescent activity assay); assay type: biochemical; conditions: HDAC enzyme source (e.g. nuclear extract or immunopurified HDAC complexes), Fluor de Lys substrate, 30 minutes RT
Method: 1) In vitro HDAC-inhibition Assay:
This assay measures a compound's ability to inhibit acetyl-lysine deacetylation in vitro and was used as both a primary screening method as well as for IC50 determinations of confirmed inhibitors. The assay is performed in vitro using an HDAC enzyme source (e.g. partially purified nuclear extract or immunopurified HDAC complexes) and a proprietary fluorescent substrate/developer system (HDAC Quantizyme Fluor de Lys Fluorescent Activity Assay, BIOMOL). The assay is run in 1,536-well Greiner white-bottom plates using the following volumes and order of addition: • Step 1: Enzyme (2.5 μL) source added to plate (from refrigerated container) • Step 2: Compounds (50 nL) added with pin transfer device • Step 3: Fluor de Lys (2.5 μL) substrate added, incubate at RT, 30 minutes • Step 4: Developer (5 μL) solution is added (containing TSA), to stop reaction • Step 5: Plate Reader—data collection
The deacetylated fluorophore is excited with 360 nm light and the emitted light (460 nm) is detected on an automated fluorometric plate reader (Aquest, Molecular Devices).

| SMILES | IC50 [1] [nM] | IC50 [2] [nM] |
| --- | --- | --- |
| CC(=O)SCC(=O)c1ccc(NS(=O)(=O)c2ccc(Oc3ccccc3C)cc2)cc1 [Example 01, Thioacetic acid S-{2-oxo-2-[4-(4-o-tolyloxy-benzenesulfonylamino)-phenyl]-ethyl} ester] | ≤ 1000 | ≤ 1000 |
| CC(=O)SCC(=O)c1ccc(NS(=O)(=O)c2ccc(OCCN3CCCCC3)cc2)cc1 [Example 19, Thioacetic acid S-(2-oxo-2-{4-[4-(2-piperidin-1-yl-ethoxy)-benzenesulfonylamino]-phenyl}-ethyl) ester] | ≤ 1000 | ≤ 1000 |
| CC(=O)SCC(=O)c1ccc(NS(=O)(=O)c2ccc(OCCCN3CCCC3)cc2)nc1 [Example 33, Thioacetic acid S-(2-oxo-2-{6-[4-(3-pyrrolidin-1-yl-propoxy)-benzenesulfonylamino]-pyridin-3-yl}-ethyl) ester] | ≤ 1000 | ≤ 1000 |
| CC(=O)SCC(=O)c1ccc(NS(=O)(=O)c2ccc(Oc3ccccc3)cc2)cc1 [Example 03, Thioacetic acid S-{2-oxo-2-[4-(4-phenoxy-benzenesulfonylamino)-phenyl]-ethyl} ester] | ≤ 1000 | ≤ 1000 |
